Measurements: paper PMC4504079, “Andrographolide sodium bisulphite-induced inactivation of urease: inhibitory potency, kinetics and mechanism” (BMC Complementary and Alternative Medicine, 2015)

Assays:
[1] = target: jack bean urease (JBU) (Canavalia ensiformis, UniProt P07374); test: urease activity assay (modified Berthelot ammonia determination), slow-binding progress curves; format: biochemical
[2] = target: T1, Helicobacter pylori urease (HPU) (Helicobacter pylori, UniProt P69996); test: urease activity assay on desalted crude bacterial extract (modified Berthelot); format: biochemical
T1 construct: gene ureB; crude urease solution from H. pylori ATCC 43504
T1 sequence (P69996 whole entry): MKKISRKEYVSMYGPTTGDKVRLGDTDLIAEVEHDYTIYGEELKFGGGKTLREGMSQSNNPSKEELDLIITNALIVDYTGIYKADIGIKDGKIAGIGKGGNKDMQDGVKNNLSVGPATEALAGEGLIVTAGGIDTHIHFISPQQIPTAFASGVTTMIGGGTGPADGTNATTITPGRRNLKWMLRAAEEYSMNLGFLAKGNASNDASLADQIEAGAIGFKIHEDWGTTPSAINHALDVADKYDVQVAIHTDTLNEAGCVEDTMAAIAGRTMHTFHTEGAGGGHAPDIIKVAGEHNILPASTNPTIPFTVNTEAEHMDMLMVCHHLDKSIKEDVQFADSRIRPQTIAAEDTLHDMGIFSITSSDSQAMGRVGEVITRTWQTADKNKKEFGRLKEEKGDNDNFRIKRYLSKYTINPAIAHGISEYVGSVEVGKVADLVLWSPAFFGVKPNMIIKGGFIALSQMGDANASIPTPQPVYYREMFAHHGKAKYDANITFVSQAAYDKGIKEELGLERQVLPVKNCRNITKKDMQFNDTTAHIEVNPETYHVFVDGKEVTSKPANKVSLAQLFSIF

jack bean urease (JBU), sequence (P07374 whole entry): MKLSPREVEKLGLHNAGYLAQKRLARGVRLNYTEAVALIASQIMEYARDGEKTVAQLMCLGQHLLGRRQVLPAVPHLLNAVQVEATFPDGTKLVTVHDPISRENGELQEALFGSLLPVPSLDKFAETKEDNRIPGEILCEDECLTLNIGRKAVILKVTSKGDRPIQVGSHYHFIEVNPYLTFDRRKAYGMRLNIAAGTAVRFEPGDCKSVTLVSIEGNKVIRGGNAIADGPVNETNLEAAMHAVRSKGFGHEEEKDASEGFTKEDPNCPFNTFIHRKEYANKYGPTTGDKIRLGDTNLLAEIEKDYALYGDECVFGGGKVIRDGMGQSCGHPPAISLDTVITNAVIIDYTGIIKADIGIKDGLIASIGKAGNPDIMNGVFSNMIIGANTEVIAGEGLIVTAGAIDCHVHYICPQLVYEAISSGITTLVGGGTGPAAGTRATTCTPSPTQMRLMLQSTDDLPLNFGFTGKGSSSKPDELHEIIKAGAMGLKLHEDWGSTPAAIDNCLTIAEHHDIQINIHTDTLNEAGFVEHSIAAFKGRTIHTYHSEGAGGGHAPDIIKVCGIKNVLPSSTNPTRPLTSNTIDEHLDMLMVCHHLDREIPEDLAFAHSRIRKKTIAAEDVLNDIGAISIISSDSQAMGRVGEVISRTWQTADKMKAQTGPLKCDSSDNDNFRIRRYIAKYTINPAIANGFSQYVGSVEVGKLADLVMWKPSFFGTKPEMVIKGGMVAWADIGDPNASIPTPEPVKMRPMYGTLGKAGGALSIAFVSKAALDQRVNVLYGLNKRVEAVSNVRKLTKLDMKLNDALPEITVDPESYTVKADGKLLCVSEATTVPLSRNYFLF

SMILES: C=C1CC[C@@H]2[C@](C)(CO)[C@H](O)CC[C@@]2(C)[C@@H]1CC(C1=CCOC1=O)S(=O)(=O)O (some centres unmarked) [ASB, Andrographolide sodium bisulphite]
- IC50 [1]: 3.28 ± 0.13 mM
- IC50 [2]: 3.17 ± 0.34 mM
